Here are results for 5 compounds from ChEMBL document CHEMBL5584262, “Plakevulin A induces apoptosis and suppresses IL-6-induced STAT3 activation in HL60 cells” (Bioorg Med Chem Lett, 2024).

In assay [1] the target is T1, Peroxisomal multifunctional enzyme type 2 (Homo sapiens) (UniProt P51659).
T1 sequence (whole entry): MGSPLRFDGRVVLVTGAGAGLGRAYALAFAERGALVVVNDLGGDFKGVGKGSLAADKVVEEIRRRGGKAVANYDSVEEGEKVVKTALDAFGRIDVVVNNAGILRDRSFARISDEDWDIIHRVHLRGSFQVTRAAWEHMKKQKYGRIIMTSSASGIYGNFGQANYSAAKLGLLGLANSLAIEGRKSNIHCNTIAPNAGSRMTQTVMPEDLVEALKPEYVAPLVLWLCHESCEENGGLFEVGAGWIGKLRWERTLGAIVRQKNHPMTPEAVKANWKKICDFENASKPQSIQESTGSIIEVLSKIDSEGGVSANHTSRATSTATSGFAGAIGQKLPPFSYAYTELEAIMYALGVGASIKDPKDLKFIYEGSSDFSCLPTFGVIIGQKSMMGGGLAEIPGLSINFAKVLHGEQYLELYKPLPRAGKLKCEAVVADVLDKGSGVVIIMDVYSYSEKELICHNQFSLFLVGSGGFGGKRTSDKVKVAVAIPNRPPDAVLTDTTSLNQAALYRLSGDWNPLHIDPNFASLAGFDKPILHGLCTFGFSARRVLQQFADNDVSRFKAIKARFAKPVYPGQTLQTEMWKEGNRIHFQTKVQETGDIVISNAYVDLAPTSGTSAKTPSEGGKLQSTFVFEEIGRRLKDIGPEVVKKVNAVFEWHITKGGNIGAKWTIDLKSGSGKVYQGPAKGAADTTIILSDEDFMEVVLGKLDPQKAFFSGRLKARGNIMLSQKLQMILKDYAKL
In words: Binding affinity to HSD17B4 in human HL-60 cell lysate by Western blot analysis. The assay is classed as subcellular. Background: Immunoblotting shows a protein as a band on a membrane.

For assay [2], the target named is T1, Peroxisomal multifunctional enzyme type 2 (Homo sapiens). Description: Binding affinity to HSD17B4 in human HL-60 cell lysate by pull down assay. The assay is classed as subcellular.
In assay [3] the test system is HL-60. In words: Cytotoxicity against human HL-60 cells assessed as inhibition of cell viability incubated for 48 hrs by WST-8 assay. The assay is classed as functional, cell-based. As to conditions: HL-60, 48 h. A general note: Formazan colour is commonly taken as a measure of viable cells.
The subject of assay [4] is HL-60. Description: Downregulation of IL-6-induced STAT3 phosphorylation in human HL-60 cells pretreated for 24 hrs followed by IL-6 stimulation by Western blot analysis. The assay is classed as functional, cell-based.
Assay [5] relates to HL-60. In words: Induction of apoptosis in human HL-60 cells assessed as DNA fragmentation at 1 uM treated for 24 hrs by agarose gel electrophoresis. The assay is classed as functional, cell-based.
In assay [6] the test system is HL-60. In words: Induction of apoptosis in Z-VAD-fmk-treated human HL-60 cells assessed as DNA fragmentation at 1 uM treated for 24 hrs by agarose gel electrophoresis. The assay is classed as functional, cell-based.
Another assay has as its system MC3T3-E1. In words: Cytotoxicity against mouse MC3T3-E1 cells assessed as inhibition of cell viability incubated for 24 hrs by MTT assay. As to conditions: MC3T3-E1, 24 h. The assay is classed as functional, cell-based.
Another assay addresses DNA polymerase beta (Rattus norvegicus, UniProt P06766). In words: Inhibition of rat DNA polymerase beta using DNA as substrate incubated for 60 mins in presence of […].
The test system of a further assay is MRC5. Description: Cytotoxicity against human MRC5 cells assessed as inhibition of cell viability incubated for 24 hrs by MTT assay. The assay is classed as functional, cell-based. The settings on record: MRC5, 24 h.
Assay [7] is described as follows: Inhibition of calf DNA polymerase alpha using DNA as substrate incubated for 60 mins in presence of […]. Details: species or system Bos taurus.
The test system of a further assay is HeLa. In words: Cytotoxicity against human HeLa cells assessed as inhibition of cell viability incubated for 24 hrs by MTT assay. Format: functional, cell-based.
Assay [8] relates to HL-60. In words: Cytotoxicity against human HL-60 cells assessed as inhibition of cell viability incubated for 24 hrs by MTT assay. The assay is classed as functional, cell-based. As to conditions: HL-60, 24 h.
Assay [9] concerns HL-60. In words: Induction of apoptosis in human HL-60 cells assessed as DNA fragmentation at 5 uM treated for 24 hrs by agarose gel electrophoresis. Format: functional, cell-based.
Assay [10] deals with HL-60. Description: Induction of apoptosis in Z-VAD-fmk-treated human HL-60 cells assessed as DNA fragmentation at 5 uM treated for 24 hrs by agarose gel electrophoresis. Format: functional, cell-based.
Assay [11] deals with HL-60. Description: Induction of apoptosis in Z-VAD-fmk-treated human HL-60 cells assessed as inhibition of caspase-3 activation at 5 uM treated for 24 hrs by Ac-DEVD-MCA substrate based analysis. Format: functional, cell-based.

The source made the active and inactive calls. No cut-off for these calls is given here. *1 amine or outer side, *2 acyl side, *3 side chain or, on linkers, in order; H or OH if unused. Where a SMILES comes first, the peptide text is derived from it. Bridges are numbered along the chain shown (N, C = ends). Roman numbers before positions name the chains, in order. [ ]: non-standard residue; d: D form. Actinocin(9to1) = Cc1c2oc3c(C)ccc(C(=O)[*:1])c3nc-2c(C(=O)[*:2])c(N)c1=O; NMeV = CN[C@H](C(=O)O)C(C)C; Sar = CNCC(=O)O

As a reminder, the IC50 is the point on the concentration scale where inhibition reaches its midpoint. `CCCCCCCCCCCCCCCC[C@]1(O)C=C[C@H](OC(=O)CCCCCNC(=O)CCCC[C@@H]2SC[C@@H]3NC(=O)N[C@@H]32)[C@H]1C(=O)OC`: the outcome in [1] and in assay [2] was Active. Besides, the IC50 in the assay on HL-60 [3] was 5.76 µM.
For `CO/C=C(/C(=O)OC)c1ccccc1COc1cc(C(F)(F)F)nc(OC(C)C)n1`, the Activity entry with HL-60 [4] is “Dose-Dependent Effect”.
`O=C(O)CCCCCNC(=O)CCCC[C@@H]1SC[C@@H]2NC(=O)N[C@@H]21`: the result in assay [2] was inactive.
On to `Cc1c2oc3c(C)ccc(C(=O)N[C@@H]4C(=O)N[C@H](C(C)C)C(=O)N5CCC[C@H]5C(=O)N(C)CC(=O)N(C)[C@@H](C(C)C)C(=O)O[C@@H]4C)c3nc-2c(C(=O)N[C@@H]2C(=O)N[C@H](C(C)C)C(=O)N3CCC[C@H]3C(=O)N(C)CC(=O)N(C)[C@@H](C(C)C)C(=O)O[C@@H]2C)c(N)c1=O` (I: T[dV]P[Sar][NMeV] / II: T[dV]P[Sar][NMeV]; ester I:1-I:C, II:1-II:C; linker I:N-II:N via Actinocin(9to1)), for which, in the assay on HL-60 [5], the result was Active. In addition, in the assay on HL-60 [6], the result was inactive.
Consider `CCCCCCCCCCCCCCCC[C@]1(O)C=C[C@H](O)[C@H]1C(=O)OC` [PLAKEVULIN A], for which the IC50 in the assay on MC3T3-E1 was 12.4 µM; on DNA polymerase beta, 189 µM; in the assay with MRC5, more than 15 µM; in [7] it was 137 µM; in the assay on HeLa, 11.5 µM; with HL-60 [8], 2.02 µM. The IC50 in the assay on HL-60 [3] was 2.63 µM. Moreover, the result in the assay on HL-60 [9] was Active. Also, in the assay with HL-60 [4], the Activity result was “Dose-Dependent Effect”. Moreover, the result in the assay on HL-60 [10] was inactive. Also, the inhibition entry in the assay with HL-60 [11] was “Active”.
